Experimental findings from patent US20070128217A1 (priority 2003, published 2007) are described below.

The test system of test [1] is antibodies in sera from SARS patients (sera 1a, 1b, 2, 6, 37, 62, London, SARS-yellow, SARS-green). The class given is binding, human. Also noted: Binding of serum 6 to linear peptides of protein X1 of SARS-CoV Urbani / Binding of serum 37 to linear peptides of protein X1 of SARS-CoV Urbani / Binding of serum 6 to looped/cyclic peptide (PEPSCAN-ELISA) / Binding of serum 37 to looped/cyclic peptide (PEPSCAN-ELISA) / Binding of serum 37 to looped/cyclic peptides of protein X1 of SARS-CoV Urbani / Binding of serum 6 to linear peptides of protein X2 / Binding of serum 37 to linear peptides of protein X2 / Binding of serum 37 to looped/cyclic peptides of protein X2 of SARS-CoV Urbani / Binding of serum 6 to linear peptides of protein M of SARS-CoV Urbani / Binding of serum 37 to linear peptides of protein M of SARS-CoV Urbani / Binding of serum 6 to looped/cyclic peptides of protein M of SARS-CoV Urbani / Binding of serum 37 to looped/cyclic peptides of protein M of SARS-CoV Urbani / Binding of serum 6 to linear peptides of protein X3 of SARS-CoV Urbani / Binding of serum 37 to linear peptides of protein X3 of SARS-CoV Urbani / Binding of serum 37 to looped/cyclic peptides of protein X3 of SARS-CoV Urbani / Binding of serum 6 to linear peptides of protein X4 of SARS-CoV Urbani / Binding of serum 37 to linear peptides of protein X4 of SARS-CoV Urbani / Binding of serum 37 to looped/cyclic peptides of protein X4 of SARS-CoV Urbani / Binding of serum 6 to linear peptides of protein X5 of SARS-CoV Urbani / Binding of serum 37 to linear peptides of protein X5 of SARS-CoV Urbani / Binding of serum 37 to looped/cyclic peptides of protein X5 of SARS-CoV Urbani / Binding of serum 6 to linear peptides of protein N of SARS-CoV Urbani / Binding of serum 37 to linear peptides of protein N of SARS-CoV Urbani / Binding of serum 6 to linear peptide (PEPSCAN-ELISA) / Binding of serum 1a to looped/cyclic peptides of protein N of SARS-CoV Urbani / Binding of serum 1b to looped/cyclic peptides of protein N of SARS-CoV Urbani / Binding of serum 2 to looped/cyclic peptides of protein N of SARS-CoV Urbani / Binding of serum 6 to looped/cyclic peptides of protein N of SARS-CoV Urbani / Binding of serum 37 to looped/cyclic peptides of protein N of SARS-CoV Urbani / Binding of serum 62 to looped/cyclic peptides of protein N of SARS-CoV Urbani / Binding of serum London to looped/cyclic peptides of protein N of SARS-CoV Urbani / Binding of serum SARS-green to looped/cyclic peptides of protein N of SARS-CoV Urbani: unit not given here.

Test [2] concerns control sera (pooled serum of ten healthy LUMC hospital workers; commercial negative donor pooled serum from the Dutch bloodbank). The class given is binding, human. Also noted: Binding of Control serum LUMC to linear peptides / Binding of Control serum Blood-bank to linear peptides / Binding of Control serum LUMC to looped peptides / Binding of Control Serum Blood-Bank to Looped peptides / Binding of Control serum LUMC to linear peptides of the protein M of SARS-CoV Urbani / Binding of Control serum Blood-bank to linear peptides of the protein M of SARS-CoV Urbani / Binding of Control serum LUMC to looped peptides of the protein M of SARS-CoV Urbani / Binding of Control Serum Blood-Bank to Looped peptides of the protein M of SARS-CoV Urbani: unit not given here.

In test [3] the test system is rabbit serum obtained by immunizing a rabbit with the SARS-CoV strain Frankfurt 1. The class given is binding. Also noted: Binding of a rabbit serum to linear peptides / Binding of a rabbit serum to looped peptides / Rabbit serum linear peptides / Rabbit serum looped peptides / Binding of a rabbit serum to linear peptides of protein N of SARS-CoV Urbani (Rabbit serum linear peptides) / Binding of a rabbit serum to looped/cyclic peptides of protein N of SARS-CoV Urbani (Rabbit serum looped peptides): unit not given here.

For TIYSHLLLVAAGMEA, in test [1], the “Binding of serum 1a to linear peptides of protein X1 of SARS-CoV Urbani” value is 0.6, the “Binding of serum 1a to looped/cyclic peptide (PEPSCAN-ELISA)” value stood at 0.5, the “Binding of serum 1b to linear peptides of protein X1 of SARS-CoV Urbani” value came out at 0.5 and the “Binding of serum 1b to looped/cyclic peptide (PEPSCAN-ELISA)” value turned out to be 0.4. For the same sequence, in test [1], the “Binding of serum 2 to linear peptides of protein X1 of SARS-CoV Urbani” value is 0.4, the “Binding of serum 2 to looped/cyclic peptide (PEPSCAN-ELISA)” value is reported as 0.3, the “Binding of serum 6 to linear peptides of protein X1 of SARS-CoV Urbani” value is 0.3 and the “Binding of serum 6 to looped/cyclic peptide (PEPSCAN-ELISA)” value is listed as 0.3. Moreover, in test [1], the “Binding of serum 37 to linear peptides of protein X1 of SARS-CoV Urbani” value is listed as 0.5, the “Binding of serum 37 to looped/cyclic peptide (PEPSCAN-ELISA)” value was 0.5, the “Binding of serum 62 to linear peptides of protein X1 of SARS-CoV Urbani” value was 0.4 and the “Binding of serum 62 to looped/cyclic peptide (PEPSCAN-ELISA)” value was determined as 0.5. Moreover, in test [1], the “Binding of serum London to linear peptides of protein X1 of SARS-CoV Urbani” value was found to be 0.2, the “Binding of serum London to looped/cyclic peptide (PEPSCAN-ELISA)” value worked out at 0.2, the “Binding of serum SARS-green to linear peptides of protein X1 of SARS-CoV Urbani” value is on record as 0.3 and the “Binding of serum SARS-green to looped/cyclic peptide (PEPSCAN-ELISA)” value amounted to 0.2. Also, in test [1], the “Binding of serum SARS-yellow to linear peptides of protein X1 of SARS-CoV Urbani” value came out at 0.5 and the “Binding of serum SARS-yellow to looped/cyclic peptide (PEPSCAN-ELISA)” value is reported as 0.3. For the same sequence, in test [2], the “Binding of Control Serum Blood-Bank to Looped peptides” value was determined as 0.5, the “Binding of Control serum Blood-bank to linear peptides” value turned out to be 0.4, the “Binding of Control serum LUMC to linear peptides” value worked out at 0.4 and the “Binding of Control serum LUMC to looped peptides” value stood at 0.6. For the same sequence, in test [3], the “Binding of a rabbit serum to linear peptides” value is 0.1 and the “Binding of a rabbit serum to looped peptides” value is reported as 0.4.
For TLACFVLAAVYRINW, in test [1], the “Binding of serum 1a to linear peptides of protein M of SARS-CoV Urbani” value came out at 0.7, the “Binding of serum 1a to looped/cyclic peptides of protein M of SARS-CoV Urbani” value was found to be 0.7, the “Binding of serum 1b to linear peptides of protein M of SARS-CoV Urbani” value came to 0.5 and the “Binding of serum 1b to looped/cyclic peptides of protein M of SARS-CoV Urbani” value was determined as 0.5. Besides, in test [1], the “Binding of serum 2 to linear peptides of protein M of SARS-CoV Urbani” value is listed as 0.5, the “Binding of serum 2 to looped/cyclic peptides of protein M of SARS-CoV Urbani” value is reported as 0.6, the “Binding of serum 6 to linear peptides of protein M of SARS-CoV Urbani” value was 0.3 and the “Binding of serum 6 to looped/cyclic peptides of protein M of SARS-CoV Urbani” value was determined as 0.7. Also, in test [1], the “Binding of serum 37 to linear peptides of protein M of SARS-CoV Urbani” value was determined as 0.8, the “Binding of serum 37 to looped/cyclic peptides of protein M of SARS-CoV Urbani” value is reported as 0.6, the “Binding of serum 62 to linear peptides of protein M of SARS-CoV Urbani” value was determined as 0.8 and the “Binding of serum 62 to looped/cyclic peptides of protein M of SARS-CoV Urbani” value turned out to be 0.6. Further, in test [1], the “Binding of serum London to linear peptides of protein M of SARS-CoV Urbani” value is recorded as 0.3, the “Binding of serum London to looped/cyclic peptides of protein M of SARS-CoV Urbani” value came out at 0.3, the “Binding of serum SARS-green to linear peptides of protein M of SARS-CoV Urbani” value is listed as 0.3 and the “Binding of serum SARS-green to looped/cyclic peptides of protein M of SARS-CoV Urbani” value is 0.2. In test [1], the “Binding of serum SARS-yellow to linear peptides of protein M of SARS-CoV Urbani” value worked out at 0.0 and the “Binding of serum SARS-yellow to looped/cyclic peptides of protein M of SARS-CoV Urbani” value is 0.5. Also, in test [2], the “Binding of Control Serum Blood-Bank to Looped peptides of the protein M of SARS-CoV Urbani” value is on record as 0.8, the “Binding of Control serum Blood-bank to linear peptides of the protein M of SARS-CoV Urbani” value was 0.5, the “Binding of Control serum LUMC to linear peptides of the protein M of SARS-CoV Urbani” value is given as 0.2 and the “Binding of Control serum LUMC to looped peptides of the protein M of SARS-CoV Urbani” value is 0.7. Further, in test [3], the “Rabbit serum linear peptides” value is recorded as 0.5 and the “Rabbit serum looped peptides” value worked out at 0.1.
